According to US20240408114A1, “METHODS FOR PREVENTING AND TREATING ACUTE KIDNEY INJURY” (The Johns Hopkins University, priority 2021, published 2024):

How the values were obtained:
[1] = system: ischemic AKI in C57BL/6J mice; assay: Ischemic AKI model (bilateral IRI 30 min): kidney function and histology; type: in vivo, mouse
Method: Mice were treated with 1.83 mg/kg of JHU083 or vehicle every other day via intraperitoneal injection and underwent bilateral IRI surgery on day 7 after the initial injection. […] Hollinger et al., 2020. Mice were followed up until 72 h after IRI, and T cells isolated from post-ischemic kidneys were studied (FIG. 14A).
Mice were anesthetized with an intraperitoneal injection of pentobarbital (75 mg/kg; Akorn, Lake Forest, IL). After shaving of abdominal hair, mice were placed onto a thermostatically controlled heating table. Abdominal midline incision was performed, and both renal pedicles were dissected and clamped for 30 min with a microvascular clamp (Roboz Surgical Instrument, Gaithersburg, MD). After 30 min, microvascular clamps were released from renal pedicles and the kidneys were inspected to confirm reperfusion. During the surgery, mice were kept well hydrated with 1 mL of warm sterile 0.9% saline. After being sutured, mice were allowed to recover with free access to chow and water. Sham surgeries were performed identically without clamping of renal pedicles.
Blood samples were obtained at 0, 24, 48, and 72 h after IRI or cisplatin injection through tail vein collection. Plasma creatinine concentration was measured by Cobas Mira Plus automated analyzer system (Roche, Indianapolis, IN) with creatinine reagent (Pointe Scientific Inc, Canton, MI).
At 24 h after IRI and 72 h after cisplatin injection, mice were anesthetized with ketamine (130 mg/kg; VetOne, Boise, ID) and xylazine (7 mg/kg; Akorn) intraperitoneal injection. After exsanguination, kidneys were collected and fixed with 10% buffered formalin followed by paraffin embedding. Tissue sections were stained with hematoxylin and eosin. A renal pathologist scored necrotic tubules in a blinded fashion.
(§1) Glutamine antagonist, JHU083 was synthesized as previously described, Rais et al., 2016, and dissolved in 50 mM […] 4-(2-hydroxyethyl)-1-piperazineethanesulfonic acid (HEPES) buffered 0.9% saline. Aliquot stocks were stored at −80° C. and thawed right before injection. Before the IRI surgery or cisplatin injection, mice were administered 1.83 mg/kg JHU083 (equivalent to 1 mg/kg DON) or vehicle (50 mM HEPES buffered 0.9% saline) every other day via intraperitoneal injection. Following 4 consecutive dosages, mice underwent IRI surgery or cisplatin injection. The last additional dose was given at 24 h after IRI or cisplatin injection. This dosage regimen was chosen based on efficiency and toxicity data from a previous study. Hollinger et al., 2020.

glutaminase = assay: Glutaminase activity in post-ischemic kidney tissues; type: in vivo, mouse; conditions: post-ischemic kidney tissues at 24 h after IRI; JHU083 1.83 mg/kg i.p. every other day; P=0.008
Method: To confirm that JHU083 suppressed glutamine-related enzymes in kidneys, glutaminase activities were measured in post-ischemic kidney tissues at 24 h after IRI.
as §1
Glutaminase activity measurements in kidney samples were adapted from previously described protocols. Engler et al., 2002. […] [^3H]-Glutamate, the reaction product, was then eluted with 0.1 N HCl and analyzed for radioactivity using Perkin Elmer's TopCount instrument in conjunction with their 96-well LumaPlates. […]

kidney T cells = assay: In vitro kidney T cell proliferation (CFSE) under hypoxia/reoxygenation; type: cell-based, mouse; conditions: 1 μM JHU083, hypoxia followed by reoxygenation
Method: Glutamine blocking effect on the kidney T cell proliferation was assessed with carboxyfluoroscein succinimidyl ester (CFSE) analysis. FACS sorted kidney T cells (CD45^+, TCR αβ^+) were cultured with media containing 1 μM JHU083 or vehicle and underwent hypoxia followed by reoxygenation.
Kidney T cells were isolated using FACS. Briefly, single-cell suspension of KMNCs was preincubated with anti-CD16/CD32 Fc block (S17011E, BioLegend) stained in Cell Staining Buffer (BioLegend) with fluorochrome-labeled antibodies: APC-Cy7 anti-CD45 (30-F11) and BV421 anti-TCRβ ([…]) from BioLegend. Live Dead Aqua (Thermo Fisher Scientific) was stained for viability assay. […] TCRβ^+ cells were sorted with FACSAria II Cell Sorter (BD Bioscience). Splenic T cells were isolated from single cells suspension of spleens using a T Cell Isolation Kit II (Miltenyi Biotec, North Rhine-Westphalia, Germany) according to the manufacturer's guideline.
48-well flat-bottom plates were coated with 5-μg/mL anti-CD3 in PBS and incubated at 4° C. overnight. Anti-CD3 coated plates were washed with PBS, and isolated cells were cultured in RPMI 1640 GlutaMAX (Thermo Fisher Scientific) supplemented with 10% FBS (Thermo Fisher Scientific), […] HEPES buffer (Thermo Fisher Scientific), 100-μM non-essential amino acid solution (Sigma-Aldrich), and 55-μM 2-mercaptoethanol (Sigma-Aldrich)±JHU083. […]

SMILES: CCOC(=O)[C@H](CCC(=O)C=[N+]=[N-])NC(=O)[C@@H](N)CC(C)C [JHU083]
- plasma creatinine at 24 h ([1]; 24 h after IRI, JHU083 1.83 mg/kg i.p. every other day, mean±SEM, vehicle 1.61±0.18, P=0.026): 1.07 ± 0.14 mg/dL
- cortical necrotic tubules ([1]; 24 h after IRI, vehicle 6.6±0.9, P=0.039): 4.2±0.5%
- medullary necrotic tubules ([1]; 24 h after IRI, vehicle 69.7±3.1, P=0.093): 58.3±5.7%
- renal injury ([1]; Example 1, FIG. 7, treated before inducing AKI): attenuated renal injury at 24 hr
- glutaminase activities, decrease (glutaminase): 29%
- cell numbers on day 3 (kidney T cells): significantly lower
- proportion of undivided cells (CFSE) (kidney T cells; P<0.001): significantly higher proportion of undivided cells
